PMC6736633 (Bioorganic & medicinal chemistry letters, 2019)

Test system: Mycobacterium tuberculosis (Mtb) H37Rv
Assay: Mtb luminescence assay
Type: cell-based
Conditions: for reduction in Mtb signal (in words) / relative Mtb signal: 20 μM

Compound | reduction in Mtb signal (in words) | relative Mtb signal | other results
COc1ccc2nccc(Nc3ccc(NC(=O)c4ccc(C)cc4)c(O)c3)c2c1 [Compound 32] | no reduction |  | 
COc1cc2nccc(Nc3ccc(OCc4cccc(F)c4)c(Cl)c3)c2cc1OC [Compound 28] |  | 10% | 
COc1cc2nccc(Nc3ccc(NC(C)=O)cc3)c2cc1OC [Compound 31] |  |  | effect on Mtb (in words) (across tested concentrations up to 20 μM): no effect
COc1ccc2c(Nc3ccc(NC(=O)c4ccc(C)cc4)c(O)c3)ccnc2c1 [Compound 33] | no reduction |  | 
C#Cc1cccc(Nc2ncnc3cc(OCCOC)c(OCCOC)cc23)c1 [Erlotinib] |  |  | Mtb signal at plateau (plateau of effect): approximately 70%
CS(=O)(=O)CCNCc1ccc(-c2ccc3ncnc(Nc4ccc(OCc5cccc(F)c5)c(Cl)c4)c3c2)o1 [Lapatinib] |  | below 10% | 
